# Results as given in publication PMC11990301, “Lipidated DAPEG Polymers as a Non-Toxic Transfection Agent—Influence of Fatty Acid Side Chain on Transfection Efficacy” (Molecules, 2025).
# Experiments:
# [1] = Dynamic light scattering (DLS) particle size of compounds and compound-pmaxGFP complexes; type: physicochemical; conditions: 25 °C, n = 3; for hydrodynamic diameters, pMAXGFP (-) / PDI (polydispersity index), pMAXGFP (-): compound alone without plasmid, in water; for hydrodynamic diameters, pMAXGFP (-): 2.5 mg/mL as printed, 10 s runs, Litesizer DIA 500, mean ± SD; for PDI (polydispersity index), pMAXGFP (-) / PDI (polydispersity index), pMAXGFP (+) / hydrodynamic diameters, pMAXGFP (+): mean ± SD; for PDI (polydispersity index), pMAXGFP (+) / hydrodynamic diameters, pMAXGFP (+): compound-DNA plasmid complex, N/P 1.5/1, in water
# Protocol: Dynamic light scattering (DLS) measurements were performed using the Litesizer DIA 500 (Anton Par, Ostfildern-Scharnhausen, Germany). The concentration of the compounds in water was 2.5 mg/mL, with the inclusion of a DNA plasmid to maintain a charge-to-ratio of 1.5/1 N/P. For system 1:1.5, the concentration of each compound was 0.61 µM; for 3:1–1.21 µM; for 9:1–3.64 µM. The DNA plasmid concentration remains constant and equal at 0.46 nM. The particle size series mode was used in a cuvette with a volume of […]. Each run was recorded at 25 °C for 10 s.
# [2] = system: spheroids of HEK-293T cells; assay: Viability in 3D model, CellTiter Glo 3D (ATP); type: cell-based; conditions: HEK-293T spheroids, 24 h incubation, tested 0, 1, 2, 5, 10, 20 and 50 µM, CellTiter Glo 3D luminescence; n = 3
# Protocol: (§1) The HEK-293T cell line was cultured using both 2D and 3D techniques. The non-adherent method of forming spheroids was used. Cells (750 cells per well) were seeded in a 96-well U-shaped plate BIOFLOAT (Sarstedt, Nümbrecht, Germany). The HEK-293T cells were cultured at 37 °C in 5% CO2 in Dulbecco’s modified Eagle medium (DMEM; high glucose) supplemented with 10% fetal bovine serum (FBS) and 1% penicillin–streptomycin solution containing 100 units of penicillin and 100 µg/mL of streptomycin. After three days of culturing, the spheroids were formed and ready for further experiments.
# After culturing for 72 h, spheroids of HEK-293T cells were incubated with increasing amounts of the appropriate compounds (0, 1, 2, 5, 10, 20, and 50 µM) in the medium described above at 37 °C with 5% CO2. After 24 h, the plate was incubated at room temperature (RT) for 30 min, followed by the addition of 100 μL of CellTiter Glo 3D Cell Viability Assay reagent (Promega, Fitchburg, WI, USA). The plate was then covered from light and shaken for 30 min. Next, the contents of each well were transferred to a white flat bottom plate (Nunc A/S, Thermo Fisher, Odense, Denmark) and luminescence was read at 560 nm using the CLARIOstar (BMG Labtech, Ortenberg, Germany).
# [3] = system: HEK-293T cell line (spheroids); assay: Transfection efficacy of GFP plasmid (pmaxGFP) in 3D model; type: cell-based; conditions: HEK-293T spheroids
# Protocol: as §1
# Cells were cultured for 72 h under the conditions described above. Mixtures of the selected compounds and pmaxGFP plasmid in N/P ratios (charge peptidomimetic/charge pmaxGFP) of 1.5, 3:1, and 9:1 were incubated for 30 min and used immediately. An appropriate control with plasmid was employed. To each well with spheroids, 10 µL of the mixture described above was added in triplicate up to 90 µL of the full medium. The plate was then incubated at 37 °C with 5% CO2 for 5 h, washed (3 × medium), and cultured for another 72 h. After this process, the cells were inspected under a fluorescent microscope (Olympus IX51 fluorescence microscope (Olympus, Tokyo, Japan)). The molar concentration of particular components was equal to, for system 1:1.5, the concentration of each compound at 0.61 µM; for 3:1–1.21 µM; for 9:1–3.64 µM. The DNA plasmid concentration remains constant and equal at 0.46 nM.
# [4] = Complex stability assessment by UV spectra (Nanodrop); type: physicochemical; conditions: Nanodrop UV-Vis, time points 0, 0.5, 1, 2.5 and 5 h, transfection buffer and concentrations (Figure S2)
# Protocol: The analysis of all obtained complexes was conducted using a Nanodrop 2000c UV-Vis spectrophotometer (Thermo Scientific, Waltham, MA, USA) at designated time points from 0 to 5 h (0, 0.5, 1, 2.5, and 5). The concentration of the individual components (DNA and the compound) was used as a reference. The concentration of the complexes remained constant in relation to the transfection experiments.
Substance,"hydrodynamic diameters, pMAXGFP (-) [1]","PDI (polydispersity index), pMAXGFP (-) [1]","PDI (polydispersity index), pMAXGFP (+) [1]","hydrodynamic diameters, pMAXGFP (+) [1]","concentration up to which viability is not suppressed compared to non-treated cells (3D spheroids, ATP) [2]","average fluorescence of spheroids (GFP production), N/P ratio 1.5:1 ([3]; compound 0.61 µM, plasmid 0.46 nM, 5 h incubation then 72 h culture, mean, n = 3) [arbitrary units]","average fluorescence of spheroids (GFP production), N/P ratio 3:1 ([3]; compound 1.21 µM, plasmid 0.46 nM, 5 h incubation then 72 h culture, mean, n = 3)","transfection efficacy ranking (GFP fluorescence), N/P ratio 9:1 ([3]; compound 3.64 µM, plasmid 0.46 nM, 5 h incubation then 72 h culture)",stability of compound and compound-DNA complex: change of UV spectra over time [4],"transfection efficacy ranking (GFP fluorescence), N/P ratio 1.5:1 ([3]; compound 0.61 µM, plasmid 0.46 nM, 5 h incubation then 72 h culture)","transfection efficacy ranking across all N/P series (1.5:1, 3:1, 9:1) ([3]; pmaxGFP)"
C2H3O-O2Oc-[Dap(GO2)]8-O2Oc-NH2 [compound 1],"309,0 ± 56,2 nm","25,5 ± 2,9%","30,1 ± 1,7%","5580,7 ± 321,2 nm",up to 5 µM,~150,around 200 arbitrary units,superior fluorescence,,,
C4H7O-O2Oc-[Dap(GO2)]8-O2Oc-NH2 [compound 2],"337,2 ± 28,6 nm","27,8 ± 1,5%","30,6 ± 2,5%","4761,0 ± 190,1 nm",,,,,,,
C6H11O-O2Oc-[Dap(GO2)]8-O2Oc-NH2 [compound 3],"599,5 ± 80,8 nm","23,5 ± 2,4%","30,7 ± 2,6%","3006,0 ± 133,9 nm",,,,,,,
C8H15O-O2Oc-[Dap(GO2)]8-O2Oc-NH2 [compound 4],"508,9 ± 62,2 nm","24,4 ± 2,3%","29,4 ± 2,5%","3446,7 ± 208,5 nm",,,,,do not show significant changes over time,,
C10H19O-O2Oc-[Dap(GO2)]8-O2Oc-NH2 [compound 5],"240,6 ± 36,9 nm","24,9 ± 2,2%","34,3 ± 4,2%","4605,7 ± 90,9 nm",,,,,,,
C12H23O-O2Oc-[Dap(GO2)]8-O2Oc-NH2 [compound 6],"337,4 ± 17,7 nm","23,2 ± 2,8%","24,2 ± 1,6%","283,7 ± 5,9 nm",,,,,,,
C14H27O-O2Oc-[Dap(GO2)]8-O2Oc-NH2 [compound 7],"373,5 ± 59,7 nm","25,6 ± 3,2%","21,2 ± 2,4%","135,0 ± 3,2 nm",,,,,,,
C16H31O-O2Oc-[Dap(GO2)]8-O2Oc-NH2 [compound 8],"517,6 ± 63,3 nm","24,8 ± 1,9%","26,3 ± 2,9%","308,7 ± 22,7 nm",,,,,,greatest fluorescence,
"H-O2Oc-[Dap(GO2)]8-O2Oc-NH2 [1a, reference compound]","329,1 ± 39,3 nm","18,3 ± 1,5%","29,9 ± 2,8%","2235,3 ± 48,0 nm",,,,,,,lowest in each series
